Values of other authors in patent US9353185B2, “Antibodies” (Affitech Research AS, priority 2010, dated 2016).

Columns and labels:
[1] = system: Th2-mediated inflammatory response; conditions: Hu et al, 2006; cited from earlier work
[2] = system: CXCR4 expressing cell lines; conditions: range of CXCR4 expressing cell lines; cited from earlier work
[3] = system: AML and lymphoma tumor xenograft models; conditions: multiple AML and lymphoma tumor xenograft models; cited from earlier work
[4] = system: acute myeloid leukaemia (AML); conditions: Mozobil pre-conditioning prior to MEC chemotherapy; patients available for first follow-up evaluation; cited from earlier work
X4 HIV strains = conditions: in vitro and in vivo in clinical trials in humans; cited from earlier work

c1ccc(CNCc2ccc(CN3CCCNCCNCCCNCC3)cc2)nc1 [AMD3465]
effect on Th2-mediated inflammatory response [1]: abrogate the Th2-mediated inflammatory response

MDX-1338: anti-human CXCR4-specific, fully human monoclonal antibody from Medarex; an IgG4
induction of apoptosis [2]: induces apoptosis | anti-tumor activity [3]: has anti-tumor activity

c1cc(CN2CCCNCCNCCCNCC2)ccc1CN1CCCNCCNCCCNCC1 [AMD3100, plerixafor]
complete remission (CR or CRi) [4]: 50% of patients | inhibition of entry of X4 HIV strains (X4 HIV strains): very high efficacy
